Results as given in patent US9187471B2, “Pyrido [4,3-b] indole and pyrido [3,4-b] indole derivatives and methods of use” (Medivation Technologies, Inc., priority 2010, dated 2015).

Experiments:
[1] = biological target: T1, human recombinant serotonin (5-Hydroxytryptamine) 5-HT5A receptor (Homo sapiens, UniProt P47898); assay: Serotonin 5-HT5A radioligand binding ([3H]LSD); conditions: compound at 0.1 μM; read-out: Inhibition of ligand binding, Serotonin 5-HT5A (percent inhibition of specific binding)
T1 construct: expressed in transfected cells; host or cells: CHO-K1
Protocol: Compounds of the invention were incubated with 1.7 nM [^3H]Lysergic acid diethylamide (LSD) for 60 min at 37° C. […] Receptor proteins were filtered and washed, the filters were counted to determine [^3H]LSD specifically bound.

[2] = biological target: T2, rat adrenergic α1A receptor (Rattus norvegicus, UniProt P43140); assay: Adrenergic α1A radioligand binding ([3H]Prazosin); conditions: read-out: Adrenergic (0.1 μM) a1A, percent inhibition of specific binding; compound at 0.1 μM; 0.25 nM [3H]Prazosin
T2 construct: rat adrenergic α1A receptor obtained from Wistar Rat submaxillary glands; from tissue; host or cells: Wistar rat submaxillary glands
T2 sequence (P43140 1-466): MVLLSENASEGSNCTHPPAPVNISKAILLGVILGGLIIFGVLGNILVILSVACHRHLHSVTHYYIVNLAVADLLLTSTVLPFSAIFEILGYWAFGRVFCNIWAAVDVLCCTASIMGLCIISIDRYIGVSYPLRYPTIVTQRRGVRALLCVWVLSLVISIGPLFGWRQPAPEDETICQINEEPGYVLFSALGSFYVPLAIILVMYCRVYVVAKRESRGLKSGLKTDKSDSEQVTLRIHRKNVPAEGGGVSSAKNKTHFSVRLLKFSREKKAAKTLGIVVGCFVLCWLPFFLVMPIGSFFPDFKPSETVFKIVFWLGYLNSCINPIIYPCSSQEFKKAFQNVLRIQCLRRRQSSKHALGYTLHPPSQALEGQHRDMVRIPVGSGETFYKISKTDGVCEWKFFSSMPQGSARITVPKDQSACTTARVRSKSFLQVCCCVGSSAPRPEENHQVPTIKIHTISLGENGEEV
How it was run: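 Wistar rat submaxillary gland receptor in 50 mM Tris-HCl pH 7.4 with 0.5 mM EDTA, incubated with compound and 0.25 nM [3H]Prazosin for 60 min at 25 °C.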

[3] = biological target: T3, human recombinant serotonin (5-Hydroxytryptamine) 5-HT6 receptor (Homo sapiens, UniProt P50406); assay: Serotonin 5-HT6 radioligand binding ([3H]LSD); conditions: compound at 0.1 μM; read-out: Inhibition of ligand binding, Serotonin 5-HT6 (percent inhibition of specific binding)
T3 construct: expressed in transfected cells; host or cells: HeLa
Excerpt: Receptor proteins were filtered and washed, the filters were then counted to determine [3H]LSD specifically bound.

[4] = biological target: T4, human recombinant dopamine D2L receptor (Homo sapiens, UniProt P14416); assay: Dopamine D2L radioligand binding ([3H]Spiperone); conditions: 0.16 nM [3H]Spiperone; for inhibition at 1 µM: read-out: Dopamine D2L (1 μM), percent inhibition of specific binding, compound at 1 μM
T4 construct: expressed in transfected cells; host or cells: CHO
Protocol: Non-specific binding was estimated in the presence of 10 μM Haloperidol. Receptor proteins were filtered and washed, the filters were then counted to determine [^3H]Spiperone specifically bound.

[5] = biological target: T5, human recombinant histamine H1 receptor (Homo sapiens, UniProt P35367); assay: Histamine H1 radioligand binding ([3H]Pyrilamine); conditions: read-out: Histamine H1 Binding (1 μM), percent inhibition of specific binding; compound at 1 μM; 1.2 nM [3H]Pyrilamine
T5 construct: expressed in transfected cells; host or cells: CHO-K1
How it was run: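 Human recombinant H1 receptor expressed in CHO-K1 cells, in 50 mM Tris-HCl pH 7.4 with 2 mM MgCl2, 100 mM NaCl, 250 mM sucrose. Non-specific binding defined with 1 μM pyrilamine; bound [3H]pyrilamine counted after filtration and washing. Values are percent inhibition of specific binding.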

[6] = biological target: T6, human recombinant serotonin (5-Hydroxytryptamine) 5-HT7 receptor (Homo sapiens, UniProt P34969); assay: Serotonin 5-HT7 radioligand binding ([3H]LSD); conditions: compound at 0.1 μM; read-out: Inhibition of ligand binding, Serotonin 5-HT7 (percent inhibition of specific binding)
T6 construct: expressed in transfected cells; host or cells: CHO
Protocol: Lysergic acid diethylamide (LSD) for 120 min. at 25° C. […] Receptor proteins were filtered and washed, the filters were then counted to determine [^3H]LSD specifically bound.

[7] = biological target: T7, human recombinant adrenergic α2C receptor (Homo sapiens, UniProt P18825); assay: Adrenergic α2C radioligand binding ([3H]MK-912); conditions: read-out: Adrenergic (0.1 μM) a2C, percent inhibition of specific binding; compound at 0.1 μM; 1 nM [3H]MK-912
T7 construct: expressed in transfected cells; host or cells: insect Sf9 cells
T7 sequence (P18825 1-462): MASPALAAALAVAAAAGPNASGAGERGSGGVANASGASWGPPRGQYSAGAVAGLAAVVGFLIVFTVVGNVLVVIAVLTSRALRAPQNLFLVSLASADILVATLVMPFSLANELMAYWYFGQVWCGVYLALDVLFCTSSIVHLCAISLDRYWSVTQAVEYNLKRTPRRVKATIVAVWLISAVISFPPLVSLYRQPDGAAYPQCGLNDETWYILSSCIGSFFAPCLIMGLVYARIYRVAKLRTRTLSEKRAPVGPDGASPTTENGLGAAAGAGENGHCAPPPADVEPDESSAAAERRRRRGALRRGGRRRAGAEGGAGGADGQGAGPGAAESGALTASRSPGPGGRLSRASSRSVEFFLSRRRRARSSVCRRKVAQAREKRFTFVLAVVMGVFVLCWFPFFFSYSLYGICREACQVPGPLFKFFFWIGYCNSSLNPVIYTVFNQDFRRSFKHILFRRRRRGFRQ
How it was run: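 Membranes from Sf9 cells expressing the human receptor, in 50 mM Tris-HCl pH 7.4 with 12.5 mM MgCl2 and 2 mM EDTA, incubated with compound and 1 nM [3H]MK-912 for 60 min at 25 °C. Non-specific binding defined with 10 μM WB-4101. Filter-bound radioactivity counted; percent inhibition of specific binding reported.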

T1 sequence (P47898 whole entry): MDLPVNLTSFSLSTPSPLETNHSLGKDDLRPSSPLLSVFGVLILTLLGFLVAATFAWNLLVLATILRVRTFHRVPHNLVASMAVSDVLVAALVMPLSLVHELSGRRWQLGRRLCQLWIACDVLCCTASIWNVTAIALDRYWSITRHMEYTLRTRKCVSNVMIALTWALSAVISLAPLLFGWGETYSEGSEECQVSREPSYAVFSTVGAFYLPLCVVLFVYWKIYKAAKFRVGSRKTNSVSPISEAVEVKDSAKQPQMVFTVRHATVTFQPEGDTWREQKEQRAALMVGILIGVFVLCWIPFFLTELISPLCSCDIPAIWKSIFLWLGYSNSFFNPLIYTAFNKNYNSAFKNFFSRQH
T3 sequence (P50406 whole entry): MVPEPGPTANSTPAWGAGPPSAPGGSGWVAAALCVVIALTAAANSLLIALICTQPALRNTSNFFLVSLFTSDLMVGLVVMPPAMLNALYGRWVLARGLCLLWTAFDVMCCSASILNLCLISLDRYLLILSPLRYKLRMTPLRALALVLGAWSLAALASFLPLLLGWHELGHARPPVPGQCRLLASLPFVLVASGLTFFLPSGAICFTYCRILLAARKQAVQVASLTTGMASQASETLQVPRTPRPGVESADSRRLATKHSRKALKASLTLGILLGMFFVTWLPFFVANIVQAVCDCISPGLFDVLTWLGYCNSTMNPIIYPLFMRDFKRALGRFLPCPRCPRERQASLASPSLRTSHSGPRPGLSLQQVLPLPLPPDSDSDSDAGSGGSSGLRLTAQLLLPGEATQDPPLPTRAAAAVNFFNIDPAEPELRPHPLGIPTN
T6 sequence (P34969 whole entry): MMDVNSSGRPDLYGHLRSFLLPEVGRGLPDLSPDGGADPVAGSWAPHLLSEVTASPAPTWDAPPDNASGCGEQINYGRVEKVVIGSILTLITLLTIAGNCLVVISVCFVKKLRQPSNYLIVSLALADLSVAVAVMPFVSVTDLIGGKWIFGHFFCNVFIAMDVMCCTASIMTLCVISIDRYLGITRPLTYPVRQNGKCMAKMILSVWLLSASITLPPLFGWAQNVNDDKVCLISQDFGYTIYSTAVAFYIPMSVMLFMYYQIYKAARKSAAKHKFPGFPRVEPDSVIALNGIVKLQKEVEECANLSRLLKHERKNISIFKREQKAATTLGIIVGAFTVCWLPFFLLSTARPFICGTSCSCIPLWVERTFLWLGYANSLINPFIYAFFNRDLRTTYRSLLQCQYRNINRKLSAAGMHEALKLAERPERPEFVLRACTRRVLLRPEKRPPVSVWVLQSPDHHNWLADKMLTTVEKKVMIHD
T5 sequence (P35367 whole entry): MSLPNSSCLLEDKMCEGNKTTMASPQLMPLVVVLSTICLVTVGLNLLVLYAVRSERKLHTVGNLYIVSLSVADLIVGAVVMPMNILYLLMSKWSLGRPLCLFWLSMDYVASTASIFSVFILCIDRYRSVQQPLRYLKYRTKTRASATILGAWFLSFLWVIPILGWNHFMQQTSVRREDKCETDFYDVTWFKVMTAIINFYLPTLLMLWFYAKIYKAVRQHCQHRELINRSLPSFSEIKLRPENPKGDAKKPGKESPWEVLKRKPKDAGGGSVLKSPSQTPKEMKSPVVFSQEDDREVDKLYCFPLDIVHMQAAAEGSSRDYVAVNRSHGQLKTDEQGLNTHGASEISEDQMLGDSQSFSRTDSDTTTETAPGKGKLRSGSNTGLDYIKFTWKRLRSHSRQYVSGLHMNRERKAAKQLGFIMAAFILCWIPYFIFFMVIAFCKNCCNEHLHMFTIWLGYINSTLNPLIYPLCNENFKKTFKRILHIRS
T4 sequence (P14416 whole entry): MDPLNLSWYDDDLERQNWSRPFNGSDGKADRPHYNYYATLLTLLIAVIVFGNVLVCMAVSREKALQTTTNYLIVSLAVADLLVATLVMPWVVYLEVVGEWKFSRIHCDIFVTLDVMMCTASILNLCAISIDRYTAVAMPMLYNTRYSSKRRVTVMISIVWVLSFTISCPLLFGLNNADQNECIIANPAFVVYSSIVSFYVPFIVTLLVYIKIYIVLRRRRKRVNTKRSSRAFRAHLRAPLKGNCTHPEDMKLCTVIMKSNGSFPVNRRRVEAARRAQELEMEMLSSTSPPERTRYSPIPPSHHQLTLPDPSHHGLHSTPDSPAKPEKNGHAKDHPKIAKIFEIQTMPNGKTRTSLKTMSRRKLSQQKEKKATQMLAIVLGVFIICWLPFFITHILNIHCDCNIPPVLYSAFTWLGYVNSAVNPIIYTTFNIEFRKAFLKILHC

## CNC(=O)c1ccc(-c2cccc(-n3c4c(c5cc(C)ccc53)CN(C)CC4)c2)cn1 [Compound No. 75, 5-(3-(2,8-dimethyl-3,4-dihydro-1H-pyrido[4,3-b]indol-5(2H)-yl)phenyl)-N-methylpicolinamide]
[1]
  inhibition at 0.1 µM: 29%
[2]
  inhibition at 0.1 µM: 21%
[3]
  inhibition at 0.1 µM: 4%
[4]
  inhibition at 1 µM: 18%
[5]
  inhibition at 1 µM: 19%
[6]
  inhibition at 0.1 µM: 21%
[7]
  inhibition at 0.1 µM: -3%

## CNC(=O)c1ccc(-c2cscc2-n2c3c(c4cc(C)ccc42)CN(C)CC3)cc1 [Compound No. 155]
[1]
  inhibition at 0.1 µM: 69%
[2]
  inhibition at 0.1 µM: 80%
[3]
  inhibition at 0.1 µM: -6%
[4]; read-out: Dopamine D2L (0.1 μM), percent inhibition of specific binding, compound at 0.1 μM
  inhibition at 0.1 µM: 1%
[5]
  inhibition at 1 µM: 10%
[6]
  inhibition at 0.1 µM: 94%
[7]
  inhibition at 0.1 µM: 0%

## CC(=O)Nc1ccc(-c2cscc2-n2c3c(c4cc(C)ccc42)CN(C)CC3)cn1 [Compound 56]
[1]
  inhibition at 0.1 µM: 51%
[2]
  inhibition at 0.1 µM: 49%
[3]
  inhibition at 0.1 µM: 16%
[4]
  inhibition at 1 µM: 10%
[5]
  inhibition at 1 µM: 10%
[6]
  inhibition at 0.1 µM: 70%
[7]
  inhibition at 0.1 µM: 2%

## Cc1ccc2c(c1)c1c(n2-c2ccc(-c3cnn(C)c3)cn2)CCN(C)C1 [Compound No. 134, 2,8-dimethyl-5-(5-(1-methyl-1H-pyrazol-4-yl)pyridin-2-yl)-2,3,4,5-tetrahydro-1H-pyrido[4,3-b]indole]
[1]
  inhibition at 0.1 µM: -4%
[2]
  inhibition at 0.1 µM: -2%
[3]
  inhibition at 0.1 µM: -2%
[4]
  inhibition at 1 µM: 1%
[5]
  inhibition at 1 µM: 6%
[6]
  inhibition at 0.1 µM: 4%
[7]
  inhibition at 0.1 µM: -2%

## Cc1ccc2c(c1)c1c(n2-c2ccc(-c3ccc4c(ccn4C)c3)cn2)CCN(C)C1 [Compound No. 136, 2,8-dimethyl-5-(5-(1-methyl-1H-indol-5-yl)pyridin-2-yl)-2,3,4,5-tetrahydro-1H-pyrido[4,3-b]indole]
[1]
  inhibition at 0.1 µM: 50%
[2]
  inhibition at 0.1 µM: 20%
[3]
  inhibition at 0.1 µM: 10%
[4]
  inhibition at 1 µM: 15%
[5]
  inhibition at 1 µM: 5%
[6]
  inhibition at 0.1 µM: 26%
[7]
  inhibition at 0.1 µM: 24%

## CC(=O)Nc1ccc(-c2ccc(-n3c4c(c5cc(C)ccc53)CN(C)CC4)nc2)cn1 [Compound No. 139, N-(6′-(2,8-dimethyl-3,4-dihydro-1H-pyrido[4,3-b]indol-5(2H)-yl)-3,3′-bipyridin-6-yl)acetamide]
[1]
  inhibition at 0.1 µM: -4%
[2]
  inhibition at 0.1 µM: 22%
[3]
  inhibition at 0.1 µM: -1%
[4]
  inhibition at 1 µM: 16%
[5]
  inhibition at 1 µM: 4%
[6]
  inhibition at 0.1 µM: 13%
[7]
  inhibition at 0.1 µM: 2%

## Cc1cc(C)c2c(c1)c1c(n2-c2ccc3ncccc3c2)CCN(C)C1 [Compound 48]
[1]
  inhibition at 0.1 µM: 10%
[2]
  inhibition at 0.1 µM: -6%
[3]
  inhibition at 0.1 µM: 20%
[4]
  inhibition at 1 µM: 41%
[5]
  inhibition at 1 µM: 4%
[6]
  inhibition at 0.1 µM: 23%
[7]
  inhibition at 0.1 µM: -7%
